#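 Five concentrations, 48 hours, 96-well plates. GI50 is the concentration that inhibits growth by half. Definition used: TGI = concentration required for complete inhibition of growth.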
# How the values were obtained:
# Test in all cases: NCI-60 cell line screen, 48 h
# T-47D breast = system: T-47D breast
# DMS 114 small cell lung = system: DMS 114 small cell lung
# 786-0 renal = system: 786-0 renal
# RXF-631 renal = system: RXF-631 renal
SMILES,TGI (T-47D breast) [µM],TGI (DMS 114 small cell lung) [µM],further results
C=C1CC2(C)CCC(OC(=O)C3(C)OC3C)C(C)(OC(C)=O)C2CC1=C(C)C (configuration not stated),> 100,,
COc1cc(CN(C)N2C(=O)c3cccc4cc([N+](=O)[O-])cc(c34)C2=O)cc(OC)c1OC,> 100,,
O=c1n(Cc2ccccc2)c2ccccc2n1CC1CS1 (configuration not stated),,> 100,
CCNc1nc2c(=O)n(C)c(=O)n(C)c2s1,,,TGI (786-0 renal): > 100 µM
CCOC(=O)c1csc(NC(=O)CCN2CCOCC2)n1,> 100,,
O=C(NC/C=C/CO)c1ccccc1,,> 100,
COc1ccc(-c2nnc3c4ccccc4sn23)cc1,,93.8,
Fc1cc(C2=Nn3c(nnc3-c3cc(F)c(Cl)cc3Cl)SC2)c(Cl)cc1Cl,32.5,,GI50 (T-47D breast): 4.93 µM
O=C1CNC(=O)N1,,> 1120,
CC1(C)CCCC2(C)[C@@H]1CC[C@]13C[C@](C)(CC[C@@H]21)[C@@H]3CO (some centres not stated),,> 100,TGI (RXF-631 renal): > 100 µM
